# Measured values as given in patent US12263146B2, “Non-linear dosing of mirdametinib” (SpringWorks Therapeutics Inc., priority 2022, dated 2025).
# Tested on: patients ≥2 and <25 years with brain cancer
# Experiment: Phase I/II trial of single agent mirdametinib in children, adolescents and young adults with brain cancer
# Assay type: in vivo, human
# Method: Example 1: Phase I/II Evaluation of Single Agent Mirdametinib, a Brain-Penetrant MEK1/2 Inhibitor, for the Treatment of Children, Adolescents, and Young Adults with Brain Cancer A multi-arm […] trial of mirdametinib is to be conducted in patients ≥2 and <25 years with brain cancer. Phase I requires participants have no prior exposure to MEK inhibitors and recurrent/progressive disease with biopsy-proven evidence of MAPK pathway activation. Three escalating dose levels (2 mg/m^2/dose BID, 2.5 mg/m^2/dose BID and 3 mg/m^2/dose BID) are planned using a rolling 6 design. The median age enrolled in the study is 10 years old (3-21).
smiles,measurement,setting,value
"O=C(NOC[C@H](O)CO)c1ccc(F)c(F)c1Nc1ccc(I)cc1F (single isomer, unassigned) [mirdametinib]",MEK related retinopathy or cardiopathy,"2, 2.5 and 3 mg/m^2/dose BID, patients with brain cancer",No MEK related retinopathy or cardiopathy is observed
same,disease progressions,"2, 2.5 and 3 mg/m^2/dose BID, patients with recurrent/progressive brain cancer with MAPK pathway activation",No disease progressions
same,dose-limiting toxicities,"all three dose levels (2, 2.5 and 3 mg/m^2/dose BID), patients with brain cancer, no prior MEK inhibitor",No dose-limiting toxicities
same,clinical activity (overall statement),dosed continuously in patients with brain cancer,clinically promising
